Measured values: patent US4230850A, “3-Substituted-4-aminoalkoxy-5,6-condensed ring-2-pyranones” (LIPHA, Lyonnaise Industrielle Pharmaceutique, priority 1976, dated 1980)

What was measured:
[1] = system: citric acid aerosol cough; test: citric acid aerosol test on the guinea pig (anti-tussive); format: in vivo; details: administered in equitoxic dose per os
From the text: The compounds of the invention were compared with codeine.

[2] = system: mice placed in a confined atmosphere; test: protection against anoxia: survival time of mice placed in a confined atmosphere; format: in vivo, mouse; details: oral
From the text: As well as the vasodilatory activity, a strong protective action against the effects of anoxia has been found for the compounds of the invention. By way of example, Table VI indicates as a percentage the increase in the survival time caused by oral administration of certain compounds to mice placed in a confined atmosphere.

vertebral rate of flow = vertebral rate of flow in the anaesthetised dog; format: in vivo; details: papaverine = 1
Method: Likewise, the vasodilation produced by the compounds of the invention is measured by means of the vertebral rate of flow in the anaesthetised dog.

femoral artery = femoral artery rate of flow, electromagnetic flow meter, anaesthetised dog; format: in vivo; details: dog anaesthetised with Pentobarbital, papaverine = 1
From the text: The coefficients given in Table IV are expressed relatively to papaverine, which is given the coefficient 1, for the femoral dilation which it causes under similar conditions.

[3] = system: rats made hypertensive by the Goldblatt technique; test: decrease in hypertension in rats made hypertensive by the Goldblatt technique; format: in vivo, rat; details: oral, (HS) or (S) given after value, not defined
Method: Anti-hypertensive (hypotensive) activity has been found with the compounds of the invention. With rats made hypertensive by the Goldblatt technique (M. GOLDBLATT, J. LUNCH, R. F. MANZAL and W. W. SUMMERVILLE, J. of Exper. Med. 1934, 59, 347-379), decreases in hypertension were recorded after oral administration of the test compound. By way of example, Table III gives the decreases obtained with some of the compounds.

[4] = system: phosphodiesterase of cyclic AMP; test: inhibition of the phosphodiesterase of cyclic AMP in vitro; format: biochemical; design: unit not given beside the values; details: measured in vitro; unit not given
From the text: The compounds of the invention are capable of inhibiting the phosphodiesterase of cyclic AMP (adenosine monophosphate).
Table II gives the inhibition indices (ID50), measured in vitro, for some of the compounds of the invention.

[5] = system: intraventricular coronary artery; test: rate of flow of the intraventricular coronary artery, electromagnetic flow meter, anaesthetised dog; format: in vivo; details: intravenous, Dipyridamol = 100
Method: The rate of flow of the intraventricular coronary artery was measured with an electromagnetic flow meter on the anaesthetised dog.
The different test compounds, administered intravenously, have caused considerable increases in the rate of flow, as reported in Table I below (the standard used for comparison being 2,6-di-[di-(2-hydroxyethyl)amino]-4,8-dipiperidinopyrimido-[5,4-d]-pyrimidine, which has the B.P.C. approved name of "Dipyridamole").

O=c1oc2cccc(O)c2c(OCCN2CCOCC2)c1-c1ccccc1 [Example 30, 4-(2'-Morpholinoethoxy)-5-hydroxy-3-phenyl-coumarin]
% inhibition on average of number of coughs [1]: 47% | Average % increase in survival time [2]: +65%

O=c1oc2ccccc2c(OCC(O)CN2CCCCC2)c1-c1ccccc1 (stereo not drawn) [Example 37, 4-(3'-Piperidino-2'-hydroxypropoxy)-3-phenyl-coumarin]
Coefficient/Papaverine (vertebral rate of flow) (vertebral rate of flow): 9 | Coefficient/Papaverine (femoral dilation) (femoral artery): 12

CCCCc1c(OCCN2CCOCC2)c2c(OCCN3CCOCC3)cc(OCCN3CCOCC3)cc2oc1=O [Example 5, 3-Butyl-4,5,7-tri(2'-morpholinoethoxy)-coumarin]
Coefficient/Papaverine (vertebral rate of flow) (vertebral rate of flow): 2

O=c1oc2c(c(OCCN3CCOCC3)c1-c1ccccc1)-c1ccccc1C2c1ccccc1 (stereo not drawn) [Example 45, 4-(2'-Morpholinoethoxy)-3,9-diphenyl-[2-1-b]-indeno-[2H]-pyran-2-one]
Decrease in hypertension in mm.Hg., 3 to 5 hours after administration [3]: -49 mm.Hg. | Coefficient/Papaverine (femoral dilation) (femoral artery): 60

O=c1oc2c(c(OCCCN3CCOCC3)c1-c1ccccc1)CCCC2 [Example 47, 4-(3'-Morpholinopropoxy)-3-phenyl-5,6,7,8-tetrahydrocoumarin]
ID50 (inhibition indices) [4]: 200

CN(C)CCCOc1c(-c2ccccc2)c(=O)oc2ccccc12 [Example 4, 4-(3'-Dimethylaminopropoxy)-3-phenyl-coumarin]
ID50 (inhibition indices) [4]: 150 | Coefficient/Papaverine (vertebral rate of flow) (vertebral rate of flow): 6 | Coefficient/Papaverine (femoral dilation) (femoral artery): 60

O=c1oc2c(O)cccc2c(OCCN2CCOCC2)c1-c1ccccc1 [Example 35, 8-Hydroxy-4-(2'-morpholinoethoxy)-3-phenyl-coumarin]
Decrease in hypertension in mm.Hg., 3 to 5 hours after administration [3]: -44 mm.Hg. | Coefficient/Papaverine (vertebral rate of flow) (vertebral rate of flow): 10 | Coefficient/Papaverine (femoral dilation) (femoral artery): 8

O=c1oc2ccccc2c(OCCN2CCOCC2)c1-c1ccccc1 [Example 2, 4-(2'-Morpholinoethoxy)-3-phenyl-coumarin]
Decrease in hypertension in mm.Hg., 3 to 5 hours after administration [3]: -34 mm.Hg. | Average % increase in survival time [2]: +41% | Coefficient related to Dipyridamol [5]: 150 | Coefficient/Papaverine (vertebral rate of flow) (vertebral rate of flow): 2

O=c1oc2c(c(OCCN3CCOCC3)c1-c1ccccc1)CCCC2 [drawing 49]
% inhibition on average of number of coughs [1]: 85%

O=c1oc2c(c(OCCN3CCOCC3)c1-c1ccccc1)CCCC2 [Example 14, 4-(2'-Morpholinoethoxy)-3-phenyl-5,6,7,8-tetrahydro-coumarin]
Average % increase in survival time [2]: +50%

CC(COc1c2c(oc(=O)c1-c1ccccc1)CCCCCC2)CN1CCOCC1 (stereo not drawn) [Example 51, 4-(3'-Morpholino-2'-methylpropoxy)-3-phenyl[1-2-b]-cyclooctano-(2H)-pyran-2-one]
% inhibition on average of number of coughs [1]: 60%

OCCN(CCO)c1nc(N2CCCCC2)c2nc(N(CCO)CCO)nc(N3CCCCC3)c2n1 [Dipyridamol, 2,6-di-[di-(2-hydroxyethyl)amino]-4,8-dipiperidinopyrimido-[5,4-d]-pyrimidine, reference compound]
Coefficient related to Dipyridamol [5]: 100

O=c1oc2ccccc2c(OCCN2CCOCC2)c1-c1ccc(Br)cc1 [Example 7, 3-(4'-Bromophenyl)-4-(2"-morpholinoethoxy)-coumarin]
Average % increase in survival time [2]: +50%

CN1CCN(CCCOc2c(-c3ccccc3)c(=O)oc3ccccc23)CC1 [Example 27, 4-[3-(4"-Methyl-1"-piperazinyl)-propoxy]-3-phenyl-coumarin]
Coefficient/Papaverine (vertebral rate of flow) (vertebral rate of flow): 3

Cc1ccc2oc(=O)c(-c3ccccc3)c(OCCCN3CCOCC3)c2c1
Coefficient related to Dipyridamol [5]: 100

COc1cccc2c(OCCN3CCOCC3)c(-c3ccccc3)c(=O)oc12 [Example 21, 8-Methoxy-4-(2'-morpholinoethoxy)-3-phenyl-coumarin]
Coefficient/Papaverine (vertebral rate of flow) (vertebral rate of flow): 5 | Coefficient/Papaverine (femoral dilation) (femoral artery): 13

CC(COc1c2c(oc(=O)c1-c1ccccc1)CCCC2)CN1CCOCC1 (stereo not drawn) [Example 46, 4-(3'-Morpholino-2'-methylpropoxy)-3-phenyl-5,6,7,8-tetrahydrocoumarin]
ID50 (inhibition indices) [4]: 600 | Average % increase in survival time [2]: +40%

COc1ccc2c3c1O[C@H]1[C@@H](O)C=C[C@H]4[C@@H](C2)N(C)CC[C@@]341 [Codeine, reference compound]
% inhibition on average of number of coughs [1]: 55%

O=c1oc2c(c(OCCN3CCOCC3)c1-c1ccccc1)CCc1ccccc1-2 [Example 44, 4-(2'-Morpholinoethoxy)-3-phenyl-5,6-dihydro-[h]-benzocoumarin]
% inhibition on average of number of coughs [1]: 48%

COc1ccc2c(OCCN3CCOCC3)c(-c3ccccc3)c(=O)oc2c1 [Example 20, 7-Methoxy-4-(2'-morpholinoethoxy)-3-phenyl-coumarin]
Coefficient/Papaverine (femoral dilation) (femoral artery): 12

Cc1ccc2oc(=O)c(-c3ccccc3)c(OCCN3CCOCC3)c2c1 [Example 12, 6-Methyl-4-(2'-morpholinoethoxy)-3-phenyl-coumarin]
Coefficient related to Dipyridamol [5]: 150

O=c1oc2ccccc2c(OCCN2CCCCC2)c1-c1ccccc1 [Example 3, 4-(2'-Piperidinoethoxy)-3-phenyl-coumarin]
ID50 (inhibition indices) [4]: 150

O=c1oc2ccccc2c(OCCN2CCOCC2)c1-c1ccc(F)cc1 [Example 11, 3-(4'-Fluorophenyl)-4-(2"-morpholinoethoxy)-coumarin]
Average % increase in survival time [2]: +45%

Cc1c(OCCN2CCOCC2)c2ccccc2oc1=O [Example 9, 3-Methyl-4-(2'-morpholinoethoxy)-coumarin]
Average % increase in survival time [2]: +30%

O=c1oc2c(c(OCCN3CCOCC3)c1-c1ccccc1)CCCC2 [drawing 27]
Coefficient/Papaverine (femoral dilation) (femoral artery): 12

O=c1oc2cccc(OCCN3CCOCC3)c2c(OCCN2CCOCC2)c1-c1ccccc1 [Example 23, Bis-4,5-(2'-morpholinoethoxy)-3-phenyl-coumarin]
Coefficient related to Dipyridamol [5]: 300 | Coefficient/Papaverine (vertebral rate of flow) (vertebral rate of flow): 4.5 | Coefficient/Papaverine (femoral dilation) (femoral artery): 6

O=c1oc2ccccc2c(OCCCN2CCOCC2)c1-c1ccccc1 [Example 16, 4-(3'-Morpholinopropoxy)-3-phenyl-coumarin]
Coefficient related to Dipyridamol [5]: 250

COc1ccc(Cc2nccc3cc(OC)c(OC)cc23)cc1OC [Papaverine, reference compound]
Coefficient/Papaverine (vertebral rate of flow) (vertebral rate of flow): 1 | Coefficient/Papaverine (femoral dilation) (femoral artery): 1

CC(COc1c(-c2ccccc2)c(=O)oc2ccccc12)CN1CCOCC1 (stereo not drawn) [Example 19, 4-(3'-Morpholino-2'-methylpropoxy)-3-phenyl-coumarin]
Decrease in hypertension in mm.Hg., 3 to 5 hours after administration [3]: -18 mm.Hg. | ID50 (inhibition indices) [4]: 600 | Average % increase in survival time [2]: +46% | Coefficient/Papaverine (vertebral rate of flow) (vertebral rate of flow): 3

O=c1oc2c(c(OCCN3CCOCC3)c1-c1ccccc1)CCCC2 [drawing 39]
Coefficient/Papaverine (vertebral rate of flow) (vertebral rate of flow): 5.5
